Results from a melting point compilation (Tetko et al.; mined from patent text by program, amines drawn as free bases though some values may be those of a salt).

| SMILES | melting point |
| --- | --- |
| CC(C)N1C(=O)NC(c2ccc3c(c2)OCCO3)c2cc3c(cc21)OCCO3 (stereo not drawn) | 92 to 95 °C |
| CC(=O)OC1CSC(Oc2cc(-c3ccncc3)cnc2F)C(OC(C)=O)C1OC(C)=O (stereo not drawn) | 143 to 144 °C |
| CC(C)(C)OC(=O)Nc1ccc(C#Cc2ccc(Cl)cc2)cc1N | 170 to 173 °C |
| CCOC(OCC)C(C#N)(C=O)Cc1cc(OC)c(OC)c(OC)c1 (stereo not drawn) | 109 to 115 °C |
| Cc1oc2ccccc2c(=O)c1C(=O)O | 120 to 135 °C |
| CCC(=O)OC1(C(=O)CCl)C(C)CC2C3CCC4CC(=O)CCC4(C)C3=CCC21C (stereo not drawn) | 140 to 142 °C |
| Cc1ccc(S(=O)(=O)N[C@@H](C)C(=O)Oc2csc(-c3ccccc3)c2)cc1 | 85 to 87 °C |
| Nc1ccc(Oc2ncc(Cl)cn2)cc1 | 125 °C |
| CCCN(CCCCNc1ncc(Cc2ccncc2)c(=O)[nH]1)c1ccccn1 | 58 to 60 °C |
| O=c1ccc2ccccc2n1O | 188 °C |
| OCC1=CC=C(COc2cc(C(F)(F)F)ccc2Cl)SS1 | 94.2 to 96 °C |
| Cc1cccc(-c2cc3cnc(N)nc3nc2N)c1C | 330 to 333 °C |
| C=CCc1ccc(C(NC(=O)OC(C)(C)C)C(=O)OC)cc1 (stereo not drawn) | 60.6 to 62 °C |
| CNS(=O)(=O)c1sccc1C(C)=O | 101 to 103 °C |
| CNc1nc2ccc(OC(F)(F)F)cc2s1 | 162 °C |
| Cc1ccc(-c2ccnc3c(C(=O)c4cccs4)cnn23)cc1NC(=O)c1ccccc1 | 216 to 218 °C |
| CCOC(=O)c1cn(CCCl)c2nc(N3CCN(C)CC3)ncc2c1=O | 154 to 155 °C |
| CP(C)(=O)C(O)C(=O)OCC(=O)c1ccccc1 (stereo not drawn) | 147 °C |
| NCCn1c(NC2CCN(Cc3ccccc3)CC2)nc2cccnc21 | 102 °C |
| Nc1cc(NC(=O)Nc2ccccc2)ccn1 | > 290 °C |
| Cc1cc(Cn2c(-c3ccccc3)nc(Cl)c2CO)ccc1OCc1ccccc1 | 184 to 186 °C |
| CC(=O)OC1CSC(Oc2cccnc2)C(OC(C)=O)C1OC(C)=O (stereo not drawn) | 147 °C |
| CN(C)CCCCCCNCc1ccc(-c2cc3ncnc(Nc4ccc5[nH]ccc5c4)c3s2)cc1 | 134 to 148 °C |
| CN(CC(=O)C(Cc1ccccc1)NC(=O)c1ccccc1)C(=O)N1CCCC1C(=O)O (stereo not drawn) | 60 to 82 °C |
| CC(C)C[C@H](NC(=O)[C@H](NC(=O)OCc1ccccc1)C(C)C)C(=O)O | 134 to 136 °C |
| COc1cc(C(=O)NC2CCN(CC(F)(F)F)CC2)ccc1Nc1ncc2c(n1)N(C1CCCCC1)CC(F)(F)C(=O)N2C | 213 to 215 °C |

| SMILES | melting point |
| --- | --- |
| CCOC(=O)c1nnc2ccc(NC(=O)OCC(Cl)(Cl)Cl)cc2c1O | 251 to 253 °C |
| COC(=O)CC(C#N)c1ccc(OC)c(OC2CCCC2)c1 (stereo not drawn) | 69 to 71 °C |
| COc1cc(CNc2ccc(C)cc2)cc(OC)c1OC | 94 to 96 °C |
| CCS(=O)(=O)c1ccc(COc2cccc3c2CN(C2CCC(=O)NC2=O)C3=O)cc1 (stereo not drawn) | 248 to 250 °C |
| CCCCOC(=O)CNC(=O)c1ccc2cc(C(=O)O)[nH]c2c1 | 267 to 268 °C |
| Cn1ccc2c(NC(=O)c3ccccc3)cccc21 | 160 °C |
| COc1cc2ncc(C#N)c(Nc3ccc(Cl)c(C(F)(F)F)c3)c2cc1OC | 265 to 267 °C |
| COc1cccc(-c2nc3n(n2)Cc2cc(OC)c(OC)cc2-3)c1 | 186 to 187 °C |
| CCOC(=O)C(=O)c1scc(Br)c1Br | 71 °C |
| Nc1ccc(C(=O)c2nccs2)cc1[N+](=O)[O-] | 179 to 181 °C |
| COC(=O)C1=C(C)NC(O)=C(C(=O)OC)C1c1cccc([N+](=O)[O-])c1 (stereo not drawn) | 150 to 152 °C |
| NC(CCOS(=O)(=O)c1ccccc1)C(=O)Nc1ccccc1 (stereo not drawn) | 89 °C |
| Brc1ccc2cc(Cc3cc4ccc(Br)cc4o3)oc2c1 | 146 to 147 °C |
| OC(c1ccccc1)c1cc(Cl)ccc1CNC(=S)NCCc1ccccc1 (stereo not drawn) | 97 °C |
| N#CCCc1oc(/C=C/c2ccccc2)nc1-c1ccccc1 | 117 to 118 °C |
| ON=CC12CCCN(CCC1)C2 | 115 to 117 °C |
| O=C(CBr)CCc1ccc(Cl)cc1 | 51 °C |
| Cc1cc(-c2nc3ccccc3c(=O)n2-c2ccc(Cl)cc2)cc(C)c1OCCO | 101 to 103 °C |
| CCCCCCCOC(=O)Cc1nc(-c2ccc(Cl)cc2)oc1-c1ccco1 | 69 to 70 °C |
| CC(=O)NC[C@H]1CN(c2cc(F)c(N3CCC(Cc4nnn[nH]4)CC3)c(F)c2)C(=O)O1 | 176 to 178 °C |
| Fc1ccccc1-c1nc2ncccc2o1 | 126 to 127 °C |
| COc1cc2c(cc1Br)-c1cc3c(n1CC2)C(=O)N(C(C)(C)C)CCC3 | 163 to 165 °C |
| CCCCCCCNc1cccc2c1CN(c1cc(C)cc(C)c1)C2=O | 68 to 69 °C |
| Cn1ncc(/C=C/C(=O)Nc2ccc(CCc3nccs3)cc2)c1-c1ccc(F)cc1 | 201 to 202 °C |
| Cc1noc(NS(=O)(=O)c2ccc(Cl)c(Cl)c2)c1Br | 144 to 146 °C |
| CCc1nc(N)nc(N)c1-c1ccc(Cl)c(N=NN(CCO)C(C)(C)C)c1 | 224 to 225 °C |

| SMILES | melting point |
| --- | --- |
| CC(C)c1cnc(NC(=O)Nc2cccc(N)c2)s1 | 113 to 115 °C |
| CCCc1nc2c(N)nc3ccccc3c2n1CC(C)C | 191 to 192 °C |
| CON(CCCCn1c(C)nc2c(N)nc3ccccc3c21)C(N)=O | 158 to 160 °C |
| COc1cc(CC(=O)NCCCc2ccc(C)c(C)c2)ccc1OCCNCCN | 119 to 120 °C |
| O=C(c1ccccc1)c1ccc2nc3[nH]c(=O)[nH]c3cc2c1 | > 300 °C |
| NC(=O)Cn1c(-c2ccc(Cl)cc2)nc2ncccc21 | 280 to 283 °C |
| CSc1ccn2nc(S(=O)(=O)Nc3c(Cl)cccc3Cl)nc2n1 | 239 to 243 °C |
| C(CCc1ccccc1)=C1CCN(Cc2nc3ccccc3[nH]2)CC1 | 163 to 165 °C |
| ON=Cc1cc(-c2ncc(C(F)(F)F)cc2Cl)ccc1Cl | 173 to 174 °C |
| Cc1cc(F)ccc1-c1cncc(OC2SCC(O)C(O)C2O)c1 (stereo not drawn) | 217 °C |
| CNc1nc(-c2cccc(Br)c2)c2cc(OC)c(OC)cc2n1 | 246 to 248 °C |
| O=Cc1csc(-c2ccccc2)c1 | 64 to 65 °C |
| CCCc1nc2c(C#N)ncc(C)c2[nH]1 | 239 to 242 °C |
| CC(C)C[C@H](NC(=O)OCc1ccccc1)C(=O)N[C@H]1CCOC1=O | 130 to 131 °C |
| O=C=Nc1ccc(OC(=O)CCC(=O)Oc2ccc(N=C=O)cc2)cc1 | 193 to 195 °C |
| O=C1C=Cc2cc3c(cc2=C1)C=C(S(=O)(=O)NCCN1CCOCC1)C(=O)C=3S(=O)(=O)NCCN1CCOCC1 | 230 to 233 °C |
| CS(=O)(=O)c1ccc(-c2c(OCC(=O)c3ccc(F)cc3)nn(CC(=O)c3ccc(F)cc3)c2-c2ccc(F)cc2)cc1 | 191 to 193 °C |
| O=S1NC(Cc2ccc3c(c2)OCO3)=NO1 (stereo not drawn) | 132 to 133 °C |
| NC(=O)c1csc(-c2cccc([N+](=O)[O-])c2)n1 | 239 to 241 °C |
| CCCc1c(OCC(O)CS(=O)(=O)c2ccc(CC(=O)OC)c(Cl)c2Cl)ccc(C(C)=O)c1O (stereo not drawn) | 122 to 125 °C |
| Clc1cccc(Cl)c1CSCc1c(Cl)cccc1Cl | 128 to 130 °C |
| O=C1C(CCO)Oc2cc([N+](=O)[O-])ccc2N1Cc1ccc([N+](=O)[O-])cc1 (stereo not drawn) | 100 to 104 °C |
| N#Cc1cc([N+](=O)[O-])cc(C#N)c1N | 160 to 163 °C |
| CC1(CF)C=C(C(=O)NCCC#N)c2cc([N+](=O)[O-])ccc2O1 (stereo not drawn) | 165 to 167 °C |
| CC(C)CC1(CCCCN2CCc3sccc3C2)C(=O)Nc2ccccc21 (stereo not drawn) | 114 to 116 °C |
| CC(=O)NCC1CN(c2ccc(N3CCC(O)(C(F)(F)F)C(C)C3)c(F)c2)C(=O)O1 (stereo not drawn) | 144 to 146 °C |

| SMILES | melting point |
| --- | --- |
| COCC(=O)NNC1=Nc2sc(Cl)cc2C(c2ccccc2[N+](=O)[O-])=NC1 | 198 to 200 °C |
| O=C(O)Cc1cccc(C=C(C(=O)O)c2nc(-c3ccccc3)c(-c3ccccc3)o2)c1 | 178 to 182 °C |
| N#CC=C(N)c1ccsc1 | 67 to 69.5 °C |
| COc1ccc(CN2CCC(C(O)(c3ccc(OC(F)(F)F)cc3)c3ccc(OC(F)(F)F)cc3)CC2)cc1 | 86 to 96 °C |
| Cc1ccn(-c2ccc(C(=O)C3c4ccccc4NC=C4N=NNN43)c(Cl)c2)n1 (stereo not drawn) | 110 to 114 °C |
| COCCOCn1c2ccccc2c2c(C)c(C(=O)OC)sc21 | 85.4 to 86 °C |
| O=C(COc1cc(N2C(=O)C3=C(CCCC3)C2=O)c(F)cc1Cl)OCc1nc[nH]n1 | 151 to 154 °C |
| CS(=O)(=O)c1ccc(C(CC2CCCC2)C(=O)Nc2nccs2)cc1C#N (stereo not drawn) | 145 to 148 °C |
| NCCOc1ccc2[nH]c3ccccc3c2c1 | 145 to 146 °C |
| C=C(COC(=O)CCCCCCBr)COC(=O)NCCCCCCCCCCCCCCCCCC | 49 °C |
| CCc1cccc2c3c([nH]c12)C(CC)(CC)OCC3 | 133 to 134 °C |
| COc1cc(C(C)O)c(O)cc1OCCCN1CCC(c2noc3cc(F)ccc23)CC1 (stereo not drawn) | 156 to 158 °C |
| CS(=O)(=O)c1ccc(-c2cnn(Cc3ccccc3C(F)(F)F)c(=O)c2-c2ccc(F)cc2)cc1 | 87 to 90 °C |
| CC1(C)CC(=O)c2c(Br)cn(-c3ccccn3)c2C1 | 166 to 168 °C |
| COC(=O)c1ccc2c(=O)n(CC(C)C)c(CNC(=O)OC(C)(C)C)c(-c3ccc(Cl)cc3)c2c1 | 205 to 207 °C |
| COC(=O)c1cscc1NC(=O)COc1ccc(-c2ccccc2Cl)cn1 | 151 to 155 °C |
| Cc1csc2c(S(N)(=O)=O)c(C(N)=O)nn12 | > 270 °C |
| CC(=O)SCSCc1cn(C(c2ccccc2)(c2ccccc2)c2ccccc2)nn1 | 106 °C |
| CNC(=O)C(=C/c1ccccc1)/C(=C\c1cc(OC)c(OC)c(OC)c1)C(=O)OC | 155 to 157 °C |
| O=C(CCc1ccccc1)CN1C(=O)CC1S(=O)CCO (stereo not drawn) | 64 to 65 °C |
| CONC(=O)c1nsc2ccc(-n3c(=O)cc(C(F)(F)F)n(C)c3=O)cc12 | 125 to 127 °C |
| CCC(Nc1ccc(Br)cc1)n1nnc2ccccc21 (stereo not drawn) | 132 °C |
| CCNc1nc(C)cc(O)n1 | 176 °C |
| Cc1cc(O)c(C2CCCCC2)cc1S(=O)c1cc(C2CCCCC2)c(O)cc1C | 151 to 153 °C |
| CNc1nc(SC)ncc1CO | 155 to 157 °C |
